The target of one data set is T1, AgTRET1 (Anopheles gambiae, UniProt Q7PIR5).
T1 construct: ORF of either Tret1, DmTret1, AmTret1, AgTret1 or BmTret1 cDNA was amplified with PCR; expressed in transfected cells; host or cells: Xenopus laevis oocytes injected with cRNA
T1 sequence (Q7PIR5 290-793): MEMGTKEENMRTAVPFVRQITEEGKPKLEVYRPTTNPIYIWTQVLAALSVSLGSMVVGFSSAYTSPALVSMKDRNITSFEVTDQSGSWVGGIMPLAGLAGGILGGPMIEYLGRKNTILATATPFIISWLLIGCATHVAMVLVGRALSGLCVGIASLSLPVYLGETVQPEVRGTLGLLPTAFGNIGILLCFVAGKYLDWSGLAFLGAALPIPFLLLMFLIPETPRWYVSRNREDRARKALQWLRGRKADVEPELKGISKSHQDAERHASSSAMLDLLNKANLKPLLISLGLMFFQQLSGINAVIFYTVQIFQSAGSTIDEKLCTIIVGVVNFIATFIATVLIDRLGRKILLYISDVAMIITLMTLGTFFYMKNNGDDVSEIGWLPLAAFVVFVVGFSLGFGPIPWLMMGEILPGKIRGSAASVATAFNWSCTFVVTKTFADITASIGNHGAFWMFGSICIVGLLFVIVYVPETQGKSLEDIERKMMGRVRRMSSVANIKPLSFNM
The experiment in a line: Trehalose uptake in Xenopus oocytes expressing AgTRET1. The class given is cell-based. The conditions noted are these: 105 mM of trehalose, 3 h. The source says: (§1) The capped RNA (cRNA) expression vector pTRET1-XbG-ev1 series was constructed as follows: ORF of either Tret1, DmTret1, AmTret1, AgTret1 or BmTret1 cDNA was amplified with PCR using specific primers containing Bgl II site at the 5′-end on each primer, respectively. The PCR products were digested with the restriction enzymes, and cloned into the site of Bgl II in pXbG-ev1 (Preston, G. M., et al. (1992) Science 256, 385-387). ORF of hGLUT1 cDNA was obtained by digestion of pSPMM1 with BamH I, and then subcloned into the site of Bgl II in pXbG-2. Template DNAs for cRNA synthesis were amplified from the corresponding cRNA expression vectors with a high fidelity DNA polymerase, KOD—Plus—, (TOYOBO). The cRNAs were synthesized with mMESSAGE mMACHINE T7 Kit (Ambion), and then purified with RNeasy MiniElute Cleanup kit (Qiagen).
(§2) All uptake assays for zero-trans trehalose and/or other sugars were performed using Xenopus oocytes expressing TRET1 at 15° C. in MBS containing appropriate concentrations of sugars. Sugar concentrations were determined using HPLC (Watanabe, M., et al. (2002) J Exp Biol 205, 2799-2802). All assays were carried out in triplicate. […] (data not shown).
(§3) Likewise, whether these Tret1-orthologs have trehalose transport activity was examined using the Xenopus oocyte expression system incubated in 105 mM of trehalose for 3 h.

The target of a further data set is T2, AmTRET1 (Apis mellifera ligustica, UniProt A9ZSY2).
T2 construct: ORF of either Tret1, DmTret1, AmTret1, AgTret1 or BmTret1 cDNA was amplified with PCR; expressed in transfected cells; host or cells: Xenopus laevis oocytes injected with cRNA
T2 sequence (A9ZSY2 1-502): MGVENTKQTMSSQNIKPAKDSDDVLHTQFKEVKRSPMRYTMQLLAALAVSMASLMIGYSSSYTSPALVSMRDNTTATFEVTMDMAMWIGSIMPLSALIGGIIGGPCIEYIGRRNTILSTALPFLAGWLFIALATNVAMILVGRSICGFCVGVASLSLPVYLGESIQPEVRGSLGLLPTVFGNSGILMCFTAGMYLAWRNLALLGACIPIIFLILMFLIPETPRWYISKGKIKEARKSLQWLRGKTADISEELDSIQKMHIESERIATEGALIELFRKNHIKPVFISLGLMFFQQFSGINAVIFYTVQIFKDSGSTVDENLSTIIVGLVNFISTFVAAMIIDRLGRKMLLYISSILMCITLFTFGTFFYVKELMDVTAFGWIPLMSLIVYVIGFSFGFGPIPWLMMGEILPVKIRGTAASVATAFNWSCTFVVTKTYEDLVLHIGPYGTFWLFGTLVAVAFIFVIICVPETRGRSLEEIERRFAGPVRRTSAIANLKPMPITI
Kind of data set: Trehalose uptake in Xenopus oocytes expressing AmTRET1. The class given is cell-based. The conditions noted are these: 105 mM of trehalose, 3 h.
Text: as §1, §2, §3

The next data set addresses T3, BmTRET1 (Bombyx mori, UniProt A9ZSY3).
T3 construct: ORF of either Tret1, DmTret1, AmTret1, AgTret1 or BmTret1 cDNA was amplified with PCR; expressed in transfected cells; host or cells: Xenopus laevis oocytes injected with cRNA
T3 sequence (A9ZSY3 1-505): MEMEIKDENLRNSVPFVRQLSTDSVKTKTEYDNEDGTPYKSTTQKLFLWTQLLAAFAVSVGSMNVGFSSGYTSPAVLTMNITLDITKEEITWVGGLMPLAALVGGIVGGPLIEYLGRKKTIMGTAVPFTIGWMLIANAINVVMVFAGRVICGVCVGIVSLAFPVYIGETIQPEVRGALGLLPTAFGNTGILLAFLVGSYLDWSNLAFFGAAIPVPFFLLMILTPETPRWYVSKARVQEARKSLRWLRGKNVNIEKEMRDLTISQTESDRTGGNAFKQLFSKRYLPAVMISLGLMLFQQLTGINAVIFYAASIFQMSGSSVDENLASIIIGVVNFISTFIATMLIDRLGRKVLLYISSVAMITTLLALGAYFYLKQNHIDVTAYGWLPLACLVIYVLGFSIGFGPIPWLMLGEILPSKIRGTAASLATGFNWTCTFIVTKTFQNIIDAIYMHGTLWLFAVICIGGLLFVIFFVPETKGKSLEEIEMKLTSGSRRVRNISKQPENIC
The experiment in a line: Trehalose uptake in Xenopus oocytes expressing BmTRET1. The class given is cell-based. The conditions noted are these: 105 mM of trehalose, 3 h.
Text: as §1, §2, §3

Data set [1] can be described thus: Degradation of trehalose in extracts of mammalian cells. Type of data set: in vitro ADME. The conditions noted are these: extracts of CHO-K1, HuH-7, NIH3T3 cells, 3 h at 37° C., data not shown.

Take `OC[C@H]1O[C@H](O[C@H]2O[C@H](CO)[C@@H](O)[C@H](O)[C@H]2O)[C@H](O)[C@@H](O)[C@@H]1O` [trehalose]: the trehalose transport activity result on AgTRET1, on AmTRET1 and at BmTRET1 was “showed trehalose transport activity” each time. For the same compound, the degradation of trehalose entry in data set [1] is recorded as “No degradation”.

The values are drawn from patent US7892789B2, “Method of increasing cell permeability to trehalose by recombinantly producing a trehalose transporter” (priority 2007, dated 2011).
